Experimental findings from patent US20140243334A1, “SUBSTITUTED HYDOXAMIC ACIDS AND USES THEREOF” (Millennium Pharmaceuticals, Inc., priority 2010, published 2014) are described below.

This assay addresses T1, purified human HDAC6 (Homo sapiens, UniProt Q9UBN7).
T1 construct: purchased BPS Bioscience 5006
T1 sequence (Q9UBN7 1-1215): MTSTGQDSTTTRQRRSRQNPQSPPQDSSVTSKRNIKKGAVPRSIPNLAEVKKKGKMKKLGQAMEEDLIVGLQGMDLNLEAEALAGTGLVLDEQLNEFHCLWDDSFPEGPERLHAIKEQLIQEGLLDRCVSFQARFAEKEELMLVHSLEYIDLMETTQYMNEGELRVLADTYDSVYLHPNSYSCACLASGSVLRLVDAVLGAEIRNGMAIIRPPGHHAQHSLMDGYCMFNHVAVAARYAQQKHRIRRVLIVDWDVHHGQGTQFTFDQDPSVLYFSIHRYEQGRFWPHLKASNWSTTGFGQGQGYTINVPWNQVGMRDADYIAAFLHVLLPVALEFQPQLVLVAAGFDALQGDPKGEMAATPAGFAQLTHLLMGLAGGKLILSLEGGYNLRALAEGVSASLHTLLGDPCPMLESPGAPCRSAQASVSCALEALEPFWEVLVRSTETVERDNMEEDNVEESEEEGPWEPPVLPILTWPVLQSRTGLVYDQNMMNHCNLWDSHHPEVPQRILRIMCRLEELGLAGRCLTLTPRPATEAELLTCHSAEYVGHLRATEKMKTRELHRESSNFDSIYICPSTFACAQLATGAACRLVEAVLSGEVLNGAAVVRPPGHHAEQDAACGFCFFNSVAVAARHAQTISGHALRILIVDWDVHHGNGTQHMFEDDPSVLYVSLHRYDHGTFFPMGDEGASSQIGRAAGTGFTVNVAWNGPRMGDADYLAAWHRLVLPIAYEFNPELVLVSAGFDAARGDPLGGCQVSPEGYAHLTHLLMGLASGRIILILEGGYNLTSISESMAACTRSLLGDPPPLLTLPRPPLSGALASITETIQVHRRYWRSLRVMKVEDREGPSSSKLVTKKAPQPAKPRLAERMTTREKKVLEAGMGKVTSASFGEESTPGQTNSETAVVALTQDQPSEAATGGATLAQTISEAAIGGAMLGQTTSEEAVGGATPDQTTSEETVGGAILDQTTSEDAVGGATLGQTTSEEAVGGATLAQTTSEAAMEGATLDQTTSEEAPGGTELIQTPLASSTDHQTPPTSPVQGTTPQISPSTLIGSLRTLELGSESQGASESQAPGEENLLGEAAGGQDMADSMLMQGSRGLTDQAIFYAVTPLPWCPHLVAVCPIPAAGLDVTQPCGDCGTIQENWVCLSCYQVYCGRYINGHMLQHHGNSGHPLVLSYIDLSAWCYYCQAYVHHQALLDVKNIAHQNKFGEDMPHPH
Briefly: HDAC6 Enzyme Assay. The note with it: HDAC6 inhibition at a compound concentration of 0.412 μM; read-out: Percent Inhibition at 0.412 μM. Format: biochemical.

In general, inhibition refers to the change of the read-out against control, counted positive when it falls.

SMILES strings stand for the structures.

Take `CC1(C(=O)NO)CCc2ccc(Oc3ccc(Cl)cc3)cc2C1` (stereo not shown) [Compound I-124, 7-(4-Chlorophenoxy)-N-hydroxy-2-methyl-1,2,3,4-tetrahydronaphthalene-2-carboxamide]: the inhibition at 0.412 µM was found to be 16%.
